From publication PMC7604503, “Cyclic peptides can engage a single binding pocket through highly divergent modes” (Proceedings of the National Academy of Sciences of the …, 2020) come the findings set out here.

The structures appear in SMILES notation. Where a SMILES comes first, the peptide text is derived from it. Bridges are numbered along the chain shown (N, C = ends).

Test [1] deals with BD1 domains (BRD2-BD1, BRD3-BD1, BRD4-BD1). The test can be described thus: SPR binding, stated for the BD1 domains together. More on the design: species or system human. The conditions noted are these: for reduction of affinity relative to 3.1B: all three BD1 domains. How it is done: (§1) We next assessed the ability of each of the three lead peptides to bind BRD3-BD1. […] To assess selectivity for other BET BDs, we used SPR to determine the binding affinity of each peptide toward the remaining BDs from BRD2, BRD3, and BRD4 (Fig. 1B). […]
(§2) Peptides were synthesised as C-terminal amides using standard fluorenylmethyloxycarbonyl (Fmoc)-strategy solid-phase chemistry using a Syro I automated synthesiser (Biotage) and NovaPEG Rink Amide resin (Novabiochem). Couplings were performed with HBTU/HOBt (1:1) and 6 equivalents of each amino acid. Double couplings were performed for arginine residues.
(§3) Following the final amino acid coupling reaction, the Fmoc group was removed and resin incubated with N-(chloroacetoxy)succinimide (0.2 M in DMF, 1 h, RT). Resin was washed with DMF (5 times) and DCM (5 times) and dried in vacuo.
(§4) Linear peptides were cleaved from the resin by incubation (3 h, RT) with a trifluoroacetic acid (TFA) cleavage cocktail (TFA/2,2’-(ethylenedioxy)diethanethiol/triisopropyl silane/H2O (92.5:2.5:2.5:2.5)) before filtration, concentration in vacuo and precipitation with ice-cold diethyl ether. Crude peptides were washed with diethyl ether (5 times), dried and resuspended in DMSO. The pH was raised to >8 using triethylamine to allow cyclisation. Following incubation (1 h, RT), peptides were re-acidified with TFA for purification.
(§5) Crude peptides were purified by reverse-phase high-performance liquid chromatography using a Chromolith Prep column (Merck) on a Prominence LC-20AP system (Shimadzu) (Solvent A: 0.1% TFA in H2O, Solvent B: 0.1% TFA in acetonitrile) to >95% purity as determined by mass spectrometry (Fig. S17). Purified peptides were reconstituted in DMSO and concentrations determined from their absorbance at 280 nm in 5% DMSO using predicted extinction coefficients.
(§6) Surface plasmon resonance (SPR)
(§7) Measurements were conducted on a T200 or S200 (GE Healthcare) and data analysed using the Biacore Insight Evaluation Software. Experiments were performed at 4 °C in single cycle kinetics mode. Biotinylated BET bromodomains were immobilised on a CAP chip (GE Healthcare) with a […]
(§8) pH 7.5 was used as the running buffer. […]
On the technique in general: SPR reads the build-up and loss of mass on a sensor chip optically.

In test [2] the target is T1, BRD2-BD1 (Homo sapiens, UniProt P25440).
T1 construct: human BRD2 (BD1: 65-194; BD2: 347-455); Avi tag (biotinylated); made in house; host or cells: E. coli BL21(DE3)
T1 sequence (P25440 65-194): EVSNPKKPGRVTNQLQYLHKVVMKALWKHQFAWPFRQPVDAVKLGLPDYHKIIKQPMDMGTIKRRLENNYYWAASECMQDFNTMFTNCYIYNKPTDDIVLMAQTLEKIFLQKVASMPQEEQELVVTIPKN
The test can be described thus: SPR binding of peptides to immobilised biotinylated BET bromodomain. How it is done:
as §1, §2, §3, §4, §5, §6, §7, §8

Test [3] has as its target T2, BRD3-BD2 (Homo sapiens, UniProt Q15059).
T2 construct: Avi tag (biotinylated); made in house; host or cells: E. coli BL21(DE3)
The description is as above. As to the method:
as §1, §2, §3, §4, §5, §6, §7, §8

For test [4], the target named is T3, BRD4-BD1 (Homo sapiens, UniProt O60885).
T3 construct: BRD4 (BD1: 42-168; BD2: 348-464); Avi tag (biotinylated); made in house; host or cells: E. coli Rosetta2(DE3)
Described as above. How it is done:
as §1, §2, §3, §4, §5, §6, §7, §8

Test [5] addresses T4, BRD4-BD2 (Homo sapiens, UniProt O60885).
T4 construct: BRD4 (BD1: 42-168; BD2: 348-464); Avi tag (biotinylated); made in house; host or cells: E. coli BL21(DE3)
The test is described as above. How it is done: as §1, §2, §3, §4, §5, §6, §7, §8

For test [6], the target named is T5, BRD2-BD2 (Homo sapiens, UniProt P25440).
T5 construct: human BRD2 (BD1: 65-194; BD2: 347-455); Avi tag (biotinylated); made in house; host or cells: E. coli BL21(DE3)
T5 sequence (P25440 347-455): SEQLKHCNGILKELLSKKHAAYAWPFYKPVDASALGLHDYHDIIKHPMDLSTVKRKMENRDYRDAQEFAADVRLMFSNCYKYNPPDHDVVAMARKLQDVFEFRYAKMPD
Described as above.
Description: as §1, §5, §6, §7, §8

Test [7] has as its target T6, BRD3-BD1 (Homo sapiens, UniProt Q15059).
T6 construct: BRD3 (BD1: 25-147); Avi tag (biotinylated); made in house; host or cells: E. coli BL21(DE3)
The description is as above. The following applies: for Kd: gray boxed value: no reproducible signals observed at the concentrations used.
Description: as §1, §5, §6, §7, §8

Test [8] concerns BD2 domains (BRD2-BD2, BRD3-BD2, BRD4-BD2). In words: SPR binding, stated for the BD2 domains together. More on the design: species or system human.
Description: Measurements were conducted on a T200 or S200 (GE Healthcare) and data analysed using the Biacore Insight Evaluation Software. Experiments were performed at 4 C in single cycle kinetics mode. Biotinylated BET bromodomains were immobilised on a CAP chip (GE Healthcare) with a
pH 7.5 was used as the running buffer. Between cycles the chip was regenerated following the
The mark [9] stands for this setting: 4 C, geometric mean and SD of two to five measurements.
Where [10] appears, read: gray boxed value: no reproducible signals observed at the concentrations used.

T6 sequence (Q15059 25-147): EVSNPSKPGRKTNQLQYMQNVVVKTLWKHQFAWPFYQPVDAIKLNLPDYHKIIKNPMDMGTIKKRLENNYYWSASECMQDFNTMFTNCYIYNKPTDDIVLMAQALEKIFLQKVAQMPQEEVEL
T2 sequence (Q15059 307-419): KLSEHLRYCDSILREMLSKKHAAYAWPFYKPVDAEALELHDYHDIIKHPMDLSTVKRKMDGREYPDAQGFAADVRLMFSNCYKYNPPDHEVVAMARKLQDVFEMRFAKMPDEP

As for `CC[C@H](C)[C@@H]1NC(=O)[C@H]([C@@H](C)O)NC(=O)[C@H](CCCCN)NC(=O)[C@H](Cc2c[nH]c3ccccc23)NC(=O)CSC[C@@H](C(N)=O)NC(=O)[C@H](CCC(N)=O)NC(=O)[C@H](CCCCNC(C)=O)NC(=O)[C@H]([C@@H](C)O)NC(=O)[C@H](CCCNC(=N)N)NC(=O)[C@H](Cc2c[nH]c3ccccc23)NC(=O)[C@H]([C@@H](C)O)NC(=O)[C@H](C)NC(=O)CNC(=O)[C@H](CCCCNC(C)=O)NC1=O` [AcK7→Ala] ({CH2CO}-WKTIK(Ac)GATWRTK(Ac)QC-NH2; thioether N-14), the “reduction of affinity relative to 3.1B” value in test [1] is listed as “fourfold”.
For the compound `CC[C@H](C)[C@@H]1NC(=O)[C@H](CO)NC(=O)[C@@H]2CCCN2C(=O)[C@H](CCCCNC(C)=O)NC(=O)[C@H](CCCNC(=N)N)NC(=O)[C@H](Cc2c[nH]c3ccccc23)NC(=O)[C@H](CCCCNC(C)=O)NC(=O)[C@H](CC(C)C)NC(=O)[C@H](CCCNC(=N)N)NC(=O)[C@H]([C@@H](C)CC)NC(=O)[C@H]([C@@H](C)O)NC(=O)[C@H](Cc2c[nH]cn2)NC(=O)[C@H](Cc2ccc(O)cc2)NC(=O)[C@H](C)NC(=O)[C@H](Cc2c[nH]c3ccccc23)NC(=O)CSC[C@@H](C(N)=O)NC(=O)[C@H](CO)NC1=O` [4.2B] ({CH2CO}-WAYHTIRLK(Ac)WRK(Ac)PSISC-NH2; thioether N-17), the Kd was 22 ± 0.028 nM in test [2] (setting [9]); 16 ± 11 nM in test [3] (setting [9]); over 10000 nM in test [4] (setting [10]); 1.1 ± 0.04 nM in test [5] (setting [9]); 2.7 ± 6 nM in test [6] (setting [9]); over 10000 nM in test [7]. In test [8], the “selectivity for BD2 domains over BD1 domains (in words)” value is “significant selectivity”.
Take `CC[C@H](C)[C@@H]1NC(=O)[C@H]([C@@H](C)O)NC(=O)[C@H](CCCCN)NC(=O)[C@H](Cc2c[nH]c3ccccc23)NC(=O)CSC[C@@H](C(N)=O)NC(=O)[C@H](CCC(N)=O)NC(=O)[C@H](CCCCNC(C)=O)NC(=O)[C@H]([C@@H](C)O)NC(=O)[C@H](CCCNC(=N)N)NC(=O)[C@H](Cc2c[nH]c3ccccc23)NC(=O)[C@H]([C@@H](C)O)NC(=O)[C@H](CCCCNC(C)=O)NC(=O)CNC(=O)[C@H](C)NC1=O` [AcK5→Ala] ({CH2CO}-WKTIAGK(Ac)TWRTK(Ac)QC-NH2; thioether N-14): the “reduction of affinity relative to 3.1B” value in test [1] is about 80 fold.
For the compound `CC[C@H](C)[C@@H]1NC(=O)[C@H](CCCCN)NC(=O)[C@H](CC(C)C)NC(=O)CNC(=O)[C@H](Cc2ccc(O)cc2)NC(=O)[C@H](CCCCNC(C)=O)NC(=O)[C@H](CCCCN)NC(=O)[C@H](Cc2c[nH]c3ccccc23)NC(=O)[C@H](CCC(N)=O)NC(=O)[C@H](CCCCNC(C)=O)NC(=O)[C@H](Cc2c[nH]c3ccccc23)NC(=O)CSC[C@@H](C(N)=O)NC1=O` [3.2C] ({CH2CO}-WK(Ac)QWKK(Ac)YGLKIC-NH2; thioether N-12), the “binding to BD1 domains (in words)” value in test [1] is reported as “did not bind strongly”. In addition, in test [8], the “selectivity between BD2 and BD1 domains” value is on record as 10- to 100 fold. Besides, in test [8] (read-out: affinities for the BD2 domains), the Kd was in the range of 10 to 100 nM.
`CC(=O)NCCCC[C@@H]1NC(=O)[C@H](Cc2c[nH]c3ccccc23)NC(=O)CSC[C@@H](C(=O)N[C@@H](Cc2c[nH]c3ccccc23)C(=O)N[C@@H](CC(C)C)C(=O)N[C@@H](CCCCNC(C)=O)C(=O)N[C@@H](CCCNC(=N)N)C(=O)N[C@@H](CCCCNC(C)=O)C(=O)N[C@@H](CC(C)C)C(=O)N[C@@H](CC(C)C)C(=O)N[C@@H](CC(C)C)C(=O)N[C@@H](CCCNC(=N)N)C(=O)N[C@@H](CS)C(N)=O)NC(=O)[C@H](Cc2c[nH]c3ccccc23)NC(=O)[C@H](CC(N)=O)NC1=O` [4.2A] ({CH2CO}-WK(Ac)NWCWLK(Ac)RK(Ac)LLLRC-NH2; thioether N-5 (inferred)): in test [5], the “binding to BRD4-BD2, fold tighter than to other BD2 domains” value is recorded as 4- to 8 fold. For the same compound, the “binding to BRD3-BD1, fold tighter than to BRD4-BD2” value in test [7] amounted to 10 fold.
For `CC[C@H](C)[C@@H]1NC(=O)[C@H](Cc2c[nH]c3ccccc23)NC(=O)[C@H]([C@@H](C)CC)NC(=O)[C@H](CCCNC(=N)N)NC(=O)[C@H]([C@@H](C)O)NC(=O)[C@H](CC(C)C)NC(=O)[C@H](CCCCNC(C)=O)NC(=O)[C@H]([C@@H](C)O)NC(=O)[C@H](Cc2c[nH]c3ccccc23)NC(=O)[C@H](CCCNC(=N)N)NC(=O)[C@H](CC(C)C)NC(=O)[C@H](Cc2ccc(O)cc2)NC(=O)[C@H]([C@@H](C)O)NC(=O)[C@H](Cc2c[nH]c3ccccc23)NC(=O)CSC[C@@H](C(N)=O)NC(=O)[C@H](CO)NC1=O` [3.1A] ({CH2CO}-WTYLRWTK(Ac)LTRIWISC-NH2; thioether N-16), the “interaction with BRD2-BD1 (in words)” value in test [2] was “no observable interaction”.
Regarding `CC[C@H](C)[C@@H]1NC(=O)[C@H](C)NC(=O)[C@H](CCCCN)NC(=O)[C@H](CCCCNC(C)=O)NC(=O)[C@H](Cc2c[nH]c3ccccc23)NC(=O)CSC[C@@H](C(N)=O)NC(=O)[C@H]([C@@H](C)CC)NC(=O)[C@H](Cc2c[nH]cn2)NC(=O)[C@H](CC(C)C)NC(=O)[C@H]([C@@H](C)O)NC(=O)[C@H](CCCCN)NC(=O)[C@H](CC(C)C)NC(=O)[C@H]([C@@H](C)CC)NC(=O)[C@H](CCCCNC(C)=O)NC(=O)CNC(=O)[C@@H]2CCCN2C(=O)[C@H](CC(C)C)NC1=O` [3.2A] ({CH2CO}-WK(Ac)KAILPGK(Ac)ILKTLHIC-NH2; thioether N-17), the Kd in test [2] (setting [10]) was over 10000 nM; in test [3] (setting [10]), over 10000 nM; in test [4] (setting [9]), 8.9 ± 20 nM; in test [5] (setting [10]) it was over 10000 nM; in test [6] (setting [10]), over 10000 nM; in test [7] it was over 10000 nM. Further, in test [3], the “binding to BRD3-BD2 (in words)” value is on record as “strong binding was not observed”.
